The target of assay [1] is T1, Histone deacetylase 3/Nuclear receptor corepressor 2 (HDAC3/NCoR2) (Homo sapiens, UniProt O15379). Description: Inhibition of full length human C-terminal His-tagged HDAC3/N-terminal GST-tagged NCOR2 (395 to 489 residues) co-expressed in baculovirus infected sf9 cells using (FAM)-labeled acetylated peptide substrate after 60 mins by caliper microfluidic mobility shift assay.

Assay [2] deals with T1, Histone deacetylase 3/Nuclear receptor corepressor 2 (HDAC3/NCoR2). The assay can be described thus: biochemical. Format: cell-based.
Description: Inhibition of His6-tagged HDAC3/SMRT (395 to 489 residues) (unknown origin) co-expressed in baculovirus infected sf9 cells using (FAM)-labeled acetylated peptide substrate after 17 hrs by caliper microfluidic mobility shift assay
Assay [3] is filed under the species Homo sapiens. The assay can be described thus: Selectivity ratio of IC50 for HDAC1 (unknown origin) to IC50 for HDAC3 (unknown origin).
The species named for assay [4] is Homo sapiens. Description: Selectivity ratio of IC50 for HDAC2 (unknown origin) to IC50 for HDAC3 (unknown origin).
A further assay addresses Histone deacetylase 3 (Homo sapiens, UniProt O15379). Description: Inhibition of HDAC3 (unknown origin).
The species entered for assay [5] is Homo sapiens. Description: Selectivity ratio of IC50 for HDAC4 (unknown origin) to IC50 for HDAC3 (unknown origin).
For assay [6], the species on record is Homo sapiens. The assay can be described thus: Selectivity ratio of IC50 for HDAC6 (unknown origin) to IC50 for HDAC3 (unknown origin).
The species named for assay [7] is Homo sapiens. Description: Selectivity ratio of IC50 for HDAC7 (unknown origin) to IC50 for HDAC3 (unknown origin).
For assay [8], the species on record is Homo sapiens. The assay can be described thus: Selectivity ratio of IC50 for HDAC8 (unknown origin) to IC50 for HDAC3 (unknown origin).

T1 sequence (O15379 whole entry, the tested form may be a part): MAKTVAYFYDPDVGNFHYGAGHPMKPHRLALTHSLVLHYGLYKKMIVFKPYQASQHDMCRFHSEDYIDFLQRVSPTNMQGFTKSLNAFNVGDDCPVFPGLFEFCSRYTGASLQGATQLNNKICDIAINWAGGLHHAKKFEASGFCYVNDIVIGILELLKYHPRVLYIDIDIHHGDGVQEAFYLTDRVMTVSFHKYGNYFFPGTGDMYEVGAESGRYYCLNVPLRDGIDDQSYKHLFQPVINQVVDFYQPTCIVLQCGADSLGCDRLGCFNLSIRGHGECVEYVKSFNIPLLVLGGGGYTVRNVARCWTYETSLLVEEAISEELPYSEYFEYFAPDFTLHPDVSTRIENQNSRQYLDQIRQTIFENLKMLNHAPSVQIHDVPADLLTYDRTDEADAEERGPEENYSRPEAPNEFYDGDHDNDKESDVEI
T1 sequence (Q9Y618 whole entry, further chain, the tested form may be a part): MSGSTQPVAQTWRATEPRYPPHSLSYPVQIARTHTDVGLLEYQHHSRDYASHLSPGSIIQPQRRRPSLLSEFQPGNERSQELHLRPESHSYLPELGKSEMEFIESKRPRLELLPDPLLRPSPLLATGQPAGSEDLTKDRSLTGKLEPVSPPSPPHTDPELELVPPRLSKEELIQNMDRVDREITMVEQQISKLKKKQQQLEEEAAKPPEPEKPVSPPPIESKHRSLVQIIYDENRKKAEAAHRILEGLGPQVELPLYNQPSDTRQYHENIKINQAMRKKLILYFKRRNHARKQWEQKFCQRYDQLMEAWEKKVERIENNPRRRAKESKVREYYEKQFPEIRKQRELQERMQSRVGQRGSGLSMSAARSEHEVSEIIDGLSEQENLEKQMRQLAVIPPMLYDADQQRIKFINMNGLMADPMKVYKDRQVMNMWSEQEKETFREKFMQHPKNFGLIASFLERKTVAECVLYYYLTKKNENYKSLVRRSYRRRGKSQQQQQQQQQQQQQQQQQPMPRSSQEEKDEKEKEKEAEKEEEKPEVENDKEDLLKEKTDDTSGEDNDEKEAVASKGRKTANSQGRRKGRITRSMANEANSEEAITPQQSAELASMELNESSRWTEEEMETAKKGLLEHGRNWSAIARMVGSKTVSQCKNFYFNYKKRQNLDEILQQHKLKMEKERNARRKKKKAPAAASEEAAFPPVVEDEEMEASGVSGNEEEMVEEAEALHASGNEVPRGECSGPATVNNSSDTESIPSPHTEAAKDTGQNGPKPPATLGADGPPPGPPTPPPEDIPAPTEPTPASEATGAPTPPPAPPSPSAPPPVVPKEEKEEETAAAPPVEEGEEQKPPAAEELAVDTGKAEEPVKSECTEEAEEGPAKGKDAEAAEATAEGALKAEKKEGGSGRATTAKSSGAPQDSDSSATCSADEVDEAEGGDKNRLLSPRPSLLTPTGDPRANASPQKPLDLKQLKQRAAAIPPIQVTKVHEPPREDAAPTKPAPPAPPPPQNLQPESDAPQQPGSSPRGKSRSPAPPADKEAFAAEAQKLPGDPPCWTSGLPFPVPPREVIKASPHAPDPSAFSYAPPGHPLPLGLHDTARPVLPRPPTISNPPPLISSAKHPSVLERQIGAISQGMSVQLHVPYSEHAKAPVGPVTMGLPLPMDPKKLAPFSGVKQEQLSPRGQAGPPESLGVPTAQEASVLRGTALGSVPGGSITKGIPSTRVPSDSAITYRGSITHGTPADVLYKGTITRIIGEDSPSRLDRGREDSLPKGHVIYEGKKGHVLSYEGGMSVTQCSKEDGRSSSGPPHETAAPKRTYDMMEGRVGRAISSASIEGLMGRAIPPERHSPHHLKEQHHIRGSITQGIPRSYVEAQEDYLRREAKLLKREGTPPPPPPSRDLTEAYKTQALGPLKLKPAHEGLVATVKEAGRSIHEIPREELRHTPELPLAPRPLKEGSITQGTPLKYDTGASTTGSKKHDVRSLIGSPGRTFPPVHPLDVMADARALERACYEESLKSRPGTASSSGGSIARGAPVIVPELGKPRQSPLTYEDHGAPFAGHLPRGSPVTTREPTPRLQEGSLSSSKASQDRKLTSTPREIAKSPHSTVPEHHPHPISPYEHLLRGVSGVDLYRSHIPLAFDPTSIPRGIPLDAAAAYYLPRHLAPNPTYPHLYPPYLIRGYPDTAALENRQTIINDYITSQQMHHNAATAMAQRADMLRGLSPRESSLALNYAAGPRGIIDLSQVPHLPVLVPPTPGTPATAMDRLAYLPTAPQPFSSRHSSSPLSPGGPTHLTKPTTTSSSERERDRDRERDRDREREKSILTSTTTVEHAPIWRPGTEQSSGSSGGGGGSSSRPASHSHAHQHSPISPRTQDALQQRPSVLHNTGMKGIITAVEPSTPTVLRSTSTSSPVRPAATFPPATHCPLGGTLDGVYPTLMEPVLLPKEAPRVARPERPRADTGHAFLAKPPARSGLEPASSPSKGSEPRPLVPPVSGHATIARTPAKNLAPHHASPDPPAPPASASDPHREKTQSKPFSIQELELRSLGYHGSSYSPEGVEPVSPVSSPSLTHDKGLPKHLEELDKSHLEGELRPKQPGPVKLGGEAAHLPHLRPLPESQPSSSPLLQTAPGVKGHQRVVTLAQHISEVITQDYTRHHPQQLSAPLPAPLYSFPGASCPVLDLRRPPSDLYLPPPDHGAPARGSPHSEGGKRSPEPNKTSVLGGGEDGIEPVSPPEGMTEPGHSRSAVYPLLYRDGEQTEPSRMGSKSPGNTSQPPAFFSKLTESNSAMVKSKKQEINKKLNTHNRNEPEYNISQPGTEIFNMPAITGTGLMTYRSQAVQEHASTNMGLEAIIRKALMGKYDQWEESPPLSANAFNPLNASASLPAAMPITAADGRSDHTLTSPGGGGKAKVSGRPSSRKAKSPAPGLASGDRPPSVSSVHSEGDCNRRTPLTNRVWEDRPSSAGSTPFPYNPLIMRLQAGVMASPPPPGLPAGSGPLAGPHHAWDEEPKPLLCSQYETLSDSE
Histone deacetylase 3, sequence (O15379 whole entry): as the sequence (O15379 whole entry, the tested form may be a part) above

Regarding `C[C@H](C(=O)Nc1ccc(C(=O)Nc2ccc(F)cc2N)cc1)c1ccccc1`, in assay [1], the half-inhibitory concentration (IC50) was 130 to 230 nM.

With `C[C@@H](C(=O)Nc1ccc(C(=O)Nc2ccc(F)cc2N)cc1)c1ccccc1`, the IC50 in assay [1] was 210 to 579 nM.

On to `Nc1cc(F)ccc1NC(=O)c1ccc(NC(=O)C2(c3ccccc3)CC2)cc1`, for which the IC50 in assay [1] is 200 nM.

As to `Nc1ccccc1NC(=O)CCCCCCC(=O)NOCc1ccccc1`, in assay [2], half-maximal inhibition (IC50) was put at 552 nM.

Consider `CC[C@@H](C(=O)Nc1ccc(C(=O)Nc2ccc(F)cc2N)cc1)c1ccccc1`, for which, in assay [1], the IC50 was 60 to 170 nM.

`CC(C)[C@H](C(=O)Nc1ccc(C(=O)Nc2ccc(F)cc2N)cc1)c1ccccc1`: the IC50 in [1] is 80 nM.

Take `CC(=O)Nc1cccc(-c2csc(NC(=O)CCCCCCC(=O)Nc3ccccc3N)n2)c1`: it took 30 nM to reach half-maximal inhibition in assay [2] (IC50).

On to `CC(C)[C@@H](C(=O)Nc1ccc(C(=O)Nc2ccc(F)cc2N)cc1)c1ccccc1`, for which the concentration for half-maximal inhibition (IC50) in assay [1] is 300 to 1700 nM.

Turning to `CC(=O)Nc1ccc(C(=O)Nc2ccc(F)cc2N)cc1`, the Ratio IC50 in the assay listed under Homo sapiens [3] and in the assay filed under Homo sapiens [4] was 17 throughout.

The molecule `CC(C)(C)OC(=O)Nc1cccc(-c2csc(NC(=O)CCCCCCC(=O)Nc3ccccc3N)n2)c1` had an IC50 in assay [2] of 160 nM.

As for `C=C1CN(Cc2ccc(C(=O)Nc3ccccc3N)cc2)C(=O)c2ccccc21`, the IC50 at Histone deacetylase 3 worked out at 16 nM. Besides, the Ratio IC50 in the assay filed under Homo sapiens [3], in the assay filed under Homo sapiens [4], in the assay listed under Homo sapiens [5], in the assay filed under Homo sapiens [6], in the assay filed under Homo sapiens [7] and in the assay filed under Homo sapiens [8] was 2 each time.

`CC[C@H](C(=O)Nc1ccc(C(=O)Nc2ccc(F)cc2N)cc1)c1ccccc1`: the IC50 in [1] was 110 to 530 nM.

The molecule `Nc1cccc(-c2csc(NC(=O)CCCCCCC(=O)Nc3ccccc3N)n2)c1` gave an IC50 in assay [2] of 60.3 nM.

In the case of `Nc1ccccc1NC(=O)CCCCCCC(=O)Nc1ccc(-c2cn(Cc3ccccc3)nn2)cc1`, the midpoint of inhibition in assay [2], the IC50, lay at 1500 nM.

In the case of `Nc1cc(F)ccc1NC(=O)c1ccc(NC(=O)C2(c3ccccc3)CC2)cn1`, the IC50 in [1] was 1000 nM.

In assay [2], `CCOC(=O)Nc1cccc(-c2csc(NC(=O)CCCCCCC(=O)Nc3ccccc3N)n2)c1` showed an IC50 of 60 nM.

In assay [2], `Nc1ccccc1NC(=O)CCCCCCC(=O)NO` had an IC50 of 21.1 nM.
